Assay results as given in publication PMC6345558 (European journal of medicinal chemistry, 2018).

Tests used:
BCRP (ABCG2) = target: T1, BCRP (ABCG2) (Homo sapiens, UniProt Q9UNQ0); test: Flow cytometry, inhibition of mitoxantrone efflux by BCRP; settings: compound 20 µM, 5 µM mitoxantrone, transfected cells
T1 sequence (Q9UNQ0 1-655): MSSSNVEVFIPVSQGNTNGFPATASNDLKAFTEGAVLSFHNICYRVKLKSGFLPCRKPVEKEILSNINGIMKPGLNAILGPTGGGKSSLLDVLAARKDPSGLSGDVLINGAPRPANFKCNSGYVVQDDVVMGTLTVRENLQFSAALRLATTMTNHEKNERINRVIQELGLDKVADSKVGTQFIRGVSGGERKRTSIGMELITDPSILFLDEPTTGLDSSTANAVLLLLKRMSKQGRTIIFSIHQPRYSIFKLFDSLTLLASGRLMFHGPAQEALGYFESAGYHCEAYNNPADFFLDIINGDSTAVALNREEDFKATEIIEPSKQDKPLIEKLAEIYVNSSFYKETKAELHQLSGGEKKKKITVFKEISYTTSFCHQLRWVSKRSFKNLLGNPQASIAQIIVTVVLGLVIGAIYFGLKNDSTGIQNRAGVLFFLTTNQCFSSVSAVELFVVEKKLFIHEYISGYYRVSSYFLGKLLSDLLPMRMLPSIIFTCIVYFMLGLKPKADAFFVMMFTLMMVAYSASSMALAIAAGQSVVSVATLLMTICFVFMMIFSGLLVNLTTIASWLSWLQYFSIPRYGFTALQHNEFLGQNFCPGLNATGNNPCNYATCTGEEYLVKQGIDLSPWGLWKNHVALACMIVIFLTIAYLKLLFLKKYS

[1] = system: NIH3T3 cells overexpressing P-gp; test: MTT growth inhibition, NIH3T3 cells overexpressing P-gp
MCF7 cancer cells = test: MTT cytotoxicity, MCF7 breast cancer cells; assay type: cell-based, human; settings: for IC50: read-out: IC50 MCF7, MTT assay, 24 h incubation
MRP2 = MRP2 (Homo sapiens, UniProt Q92887); test: Flow cytometry, inhibition of calcein AM efflux by MRP2; assay type: cell-based; settings: compound 20 µM, 0.2 µM calcein AM, transfected cells
Sequence of MRP2 (Q92887 whole entry): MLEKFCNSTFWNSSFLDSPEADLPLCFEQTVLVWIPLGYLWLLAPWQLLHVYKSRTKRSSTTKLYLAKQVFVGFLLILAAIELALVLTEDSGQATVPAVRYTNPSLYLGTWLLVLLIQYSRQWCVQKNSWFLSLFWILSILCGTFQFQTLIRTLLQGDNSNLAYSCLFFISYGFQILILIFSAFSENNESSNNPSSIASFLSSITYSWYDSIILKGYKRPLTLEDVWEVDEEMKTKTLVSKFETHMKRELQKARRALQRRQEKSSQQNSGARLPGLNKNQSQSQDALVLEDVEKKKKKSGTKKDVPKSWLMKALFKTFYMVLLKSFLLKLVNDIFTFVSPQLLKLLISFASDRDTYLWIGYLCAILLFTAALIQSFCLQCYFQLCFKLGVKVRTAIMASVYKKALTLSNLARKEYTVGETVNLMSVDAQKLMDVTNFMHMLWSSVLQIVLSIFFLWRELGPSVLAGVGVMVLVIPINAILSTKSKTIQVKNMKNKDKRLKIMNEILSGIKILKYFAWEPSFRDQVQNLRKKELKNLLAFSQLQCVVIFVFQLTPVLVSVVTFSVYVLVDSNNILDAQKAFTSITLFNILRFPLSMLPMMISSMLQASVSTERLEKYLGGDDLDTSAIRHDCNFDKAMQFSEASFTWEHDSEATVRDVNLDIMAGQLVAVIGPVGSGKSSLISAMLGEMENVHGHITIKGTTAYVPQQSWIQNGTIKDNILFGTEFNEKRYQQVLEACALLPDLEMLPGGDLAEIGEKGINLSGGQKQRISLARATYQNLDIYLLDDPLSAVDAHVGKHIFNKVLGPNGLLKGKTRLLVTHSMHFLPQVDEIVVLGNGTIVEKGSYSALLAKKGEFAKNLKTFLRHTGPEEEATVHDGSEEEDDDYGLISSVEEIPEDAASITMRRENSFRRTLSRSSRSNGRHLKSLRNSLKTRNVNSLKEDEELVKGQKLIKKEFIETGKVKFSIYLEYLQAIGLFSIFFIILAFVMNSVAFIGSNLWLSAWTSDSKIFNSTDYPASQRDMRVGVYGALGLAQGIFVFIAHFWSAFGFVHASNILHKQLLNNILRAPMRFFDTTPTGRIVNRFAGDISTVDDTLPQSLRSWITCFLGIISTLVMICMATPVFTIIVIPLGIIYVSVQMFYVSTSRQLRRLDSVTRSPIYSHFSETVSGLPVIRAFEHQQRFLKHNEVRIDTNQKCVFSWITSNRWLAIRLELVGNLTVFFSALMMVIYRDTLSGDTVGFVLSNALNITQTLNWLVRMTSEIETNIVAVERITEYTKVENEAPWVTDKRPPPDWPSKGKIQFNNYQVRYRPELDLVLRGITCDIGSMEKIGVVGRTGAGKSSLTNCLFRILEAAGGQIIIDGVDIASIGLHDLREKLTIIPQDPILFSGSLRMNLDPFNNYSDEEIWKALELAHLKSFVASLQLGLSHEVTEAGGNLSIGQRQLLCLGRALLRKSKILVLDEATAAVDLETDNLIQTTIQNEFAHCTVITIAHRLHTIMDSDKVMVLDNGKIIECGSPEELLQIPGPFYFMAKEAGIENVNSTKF

NIH3T3 cells = test: MTT growth inhibition, NIH3T3 control cells; assay type: cell-based; settings: read-out: Half inhibitory growth concentration, IG50, NIH3T3, empty plasmid control, 48 h incubation at 37 °C
[2] = system: HEK293 cells overexpressing BCRP; test: MTT growth inhibition, HEK293 cells overexpressing BCRP; settings: HEK293/BCRP vs HEK293
MRP1 = MRP1 (Homo sapiens, UniProt P33527); test: Flow cytometry, inhibition of calcein AM efflux by MRP1; assay type: cell-based; settings: compound 20 µM, 0.2 µM calcein AM, transfected cells
Sequence of MRP1 (P33527 whole entry): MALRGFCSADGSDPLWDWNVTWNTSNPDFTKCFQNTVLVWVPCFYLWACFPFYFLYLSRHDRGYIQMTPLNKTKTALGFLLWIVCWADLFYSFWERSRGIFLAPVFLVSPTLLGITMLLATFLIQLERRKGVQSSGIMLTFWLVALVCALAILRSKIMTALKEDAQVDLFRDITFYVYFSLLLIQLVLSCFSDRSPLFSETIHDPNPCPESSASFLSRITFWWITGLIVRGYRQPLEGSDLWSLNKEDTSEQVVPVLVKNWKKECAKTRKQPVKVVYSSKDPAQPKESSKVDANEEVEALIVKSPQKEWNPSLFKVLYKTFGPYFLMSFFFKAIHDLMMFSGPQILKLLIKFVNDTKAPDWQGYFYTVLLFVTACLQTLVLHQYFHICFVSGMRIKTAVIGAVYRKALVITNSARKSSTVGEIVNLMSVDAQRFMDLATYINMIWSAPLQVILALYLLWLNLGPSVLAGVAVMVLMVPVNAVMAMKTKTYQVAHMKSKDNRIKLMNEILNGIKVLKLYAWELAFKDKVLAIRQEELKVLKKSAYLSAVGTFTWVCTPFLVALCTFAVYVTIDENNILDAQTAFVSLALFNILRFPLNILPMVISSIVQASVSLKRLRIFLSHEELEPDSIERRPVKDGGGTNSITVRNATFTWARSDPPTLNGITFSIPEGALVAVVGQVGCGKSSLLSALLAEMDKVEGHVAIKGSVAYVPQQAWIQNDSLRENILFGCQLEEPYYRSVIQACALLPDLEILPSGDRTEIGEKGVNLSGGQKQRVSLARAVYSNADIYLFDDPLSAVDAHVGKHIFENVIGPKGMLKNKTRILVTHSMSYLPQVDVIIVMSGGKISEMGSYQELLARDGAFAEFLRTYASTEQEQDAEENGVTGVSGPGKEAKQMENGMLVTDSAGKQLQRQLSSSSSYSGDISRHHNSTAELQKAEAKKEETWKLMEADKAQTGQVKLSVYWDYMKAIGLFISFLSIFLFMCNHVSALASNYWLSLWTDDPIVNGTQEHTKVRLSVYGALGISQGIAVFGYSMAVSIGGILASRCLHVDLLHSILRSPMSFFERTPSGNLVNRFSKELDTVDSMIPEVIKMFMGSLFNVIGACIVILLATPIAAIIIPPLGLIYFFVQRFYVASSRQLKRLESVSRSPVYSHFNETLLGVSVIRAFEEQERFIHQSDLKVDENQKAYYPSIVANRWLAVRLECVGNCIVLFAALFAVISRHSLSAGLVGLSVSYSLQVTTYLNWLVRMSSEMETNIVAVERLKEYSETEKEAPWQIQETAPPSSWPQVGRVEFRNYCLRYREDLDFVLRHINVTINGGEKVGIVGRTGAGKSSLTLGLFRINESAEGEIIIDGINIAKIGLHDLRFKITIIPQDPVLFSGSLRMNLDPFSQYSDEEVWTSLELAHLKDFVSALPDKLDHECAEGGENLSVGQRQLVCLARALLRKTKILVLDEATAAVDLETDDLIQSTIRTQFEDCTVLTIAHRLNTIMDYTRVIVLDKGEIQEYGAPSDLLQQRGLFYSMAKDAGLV

[3] = system: HEK293 cells overexpressing MRP1; test: MTT growth inhibition, HEK293 cells overexpressing MRP1; settings: HEK293/MRP1 vs HEK293
MDA-MB-231 cancer cells = test: MTT cytotoxicity, MDA-MB-231 breast cancer cells; assay type: cell-based, human; settings: read-out: IC50 MDA-MB-231; MTT assay, 24 h incubation

## O=S(=O)([O-])C(F)(F)F.OCc1ccnc(-c2cc(CO)ccn2)c1.[Ru+2].c1cc[cH-]c1.c1ccc(P(c2ccccc2)c2ccccc2)cc1 [Ru1, [Ru(η^5-Cp)(PPh3)(2,2’-bipyridine-4,4’-dimethanol)][CF3SO3]]
BCRP (ABCG2)
  Inhibition of BCRP (ABCG2) substrate efflux: did not display any inhibition property
[1]; NIH3T3/P-gp vs NIH3T3
  IG50 times higher than for non-transfected cells, P-gp: 2.4 times
[1]; read-out: Half inhibitory growth concentration, IG50, P-gp, NIH3T3 overexpressing P-gp, 48 h incubation at 37 °C, MTT
  IC50: ~70 µM
MCF7 cancer cells; MCF7 cancer cell line
  fold more cytotoxic than Ru2: ~ 7 fold
MCF7 cancer cells
  IC50: 4.61 ± 0.96 µM
MRP2
  Inhibition of MRP2 substrate efflux: did not display any inhibition property
NIH3T3 cells
  IC50: 28 µM
[2]
  IG50 times higher than for non-transfected cells, BCRP: 2.8 times
MRP1
  Inhibition of MRP1 substrate efflux: did not display any inhibition property
[3]
  IG50 times higher than for non-transfected cells, MRP1: 2 times
MDA-MB-231 cancer cells
  IC50: 13.9 ± 2.8 µM

## N.N.[Cl][Pt][Cl] [Cisplatin, reference compound]
MCF7 cancer cells
  IC50: 38 ± 1.41 µM
MDA-MB-231 cancer cells
  IC50: 122 ± 25 µM
